# Experiments:
# Test in all cases: relative viability (nuclei count vs DMSO), 5 days (fraction); higher = more cells survive
# IPA-3 + Navitoclax = compound: C1=CC=C2C(=C1)C=CC(=C2SSC3=C(C=CC4=CC=CC=C43)O)O [IPA-3] + CC1(C)CCC(c2ccc(Cl)cc2)=C(CN2CCN(c3ccc(C(=O)NS(=O)(=O)c4ccc(N[C@H](CCN5CCOCC5)CSc5ccccc5)c(S(=O)(=O)C(F)(F)F)c4)cc3)CC2)C1 [Navitoclax] (partner 0.5 µM)
# Method in brief: (§1)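 Lung cancer cell lines in 1536-well plates got either a single drug or a fixed anchor-drug dose together with five library-drug doses (not always all listed) in √10 steps, by pin tool, on the day after seeding. Nuclei were counted after 5 days, and relative viability is the treated-to-vehicle ratio of nuclei counts. Values are medians of duplicate plates.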
# Doramapimod + Luminespib = compound: Cc1ccc(-n2nc(C(C)(C)C)cc2NC(=O)Nc2ccc(OCCN3CCOCC3)c3ccccc23)cc1 [Doramapimod] + CCNC(=O)c1noc(-c2cc(C(C)C)c(O)cc2O)c1-c1ccc(CN2CCOCC2)cc1 [Luminespib] (partner 0.01 µM)
# Method in brief: as §1
# Doramapimod + Pictilisib = compound: Cc1ccc(-n2nc(C(C)(C)C)cc2NC(=O)Nc2ccc(OCCN3CCOCC3)c3ccccc23)cc1 [Doramapimod] + CS(=O)(=O)N1CCN(Cc2cc3nc(-c4cccc5[nH]ncc45)nc(N4CCOCC4)c3s2)CC1 [Pictilisib] (partner 1 µM)
# Method in brief: as §1
Cell Line,relative viability (IPA-3 + Navitoclax; first compound 0.2 µM),relative viability (IPA-3 + Navitoclax; first compound 0.6325 µM),relative viability (IPA-3 + Navitoclax; first compound 2 µM),relative viability (IPA-3 + Navitoclax; first compound 6.325 µM),relative viability (IPA-3 + Navitoclax; first compound 20 µM),relative viability (Doramapimod + Luminespib; first compound 0.02 µM),relative viability (Doramapimod + Luminespib; first compound 0.06325 µM),relative viability (Doramapimod + Luminespib; first compound 0.2 µM),relative viability (Doramapimod + Luminespib; first compound 0.6325 µM),relative viability (Doramapimod + Luminespib; first compound 2 µM),relative viability (Doramapimod + Pictilisib; first compound 0.02 µM),relative viability (Doramapimod + Pictilisib; first compound 0.06325 µM),relative viability (Doramapimod + Pictilisib; first compound 0.2 µM),relative viability (Doramapimod + Pictilisib; first compound 0.6325 µM),relative viability (Doramapimod + Pictilisib; first compound 2 µM)
NCI-H2085,1.15,0.985,1.25,1.14,1.18,0.411,0.601,0.409,0.46,0.463,0.438,0.424,0.431,0.45,0.381
NCI-H2087,1.15,0.863,0.837,0.859,0.926,0.174,0.215,0.195,0.158,0.234,0.754,0.795,0.83,0.764,0.847
NCI-H2126,0.861,0.816,0.828,0.892,0.891,0.832,0.906,0.964,1.03,0.702,0.487,0.542,0.488,0.438,0.401
NCI-H2170,0.702,0.614,0.552,0.507,0.504,0.649,0.754,0.64,0.825,0.638,0.332,0.325,0.295,0.438,0.269
NCI-H2228,0.917,0.89,0.788,0.886,1.02,0.151,0.151,0.107,0.14,0.131,0.374,0.563,0.417,0.366,0.337
NCI-H2347,0.962,0.792,0.633,0.88,0.988,0.0162,,0.601,0.5,0.492,0.637,0.547,0.497,0.829,0.347
NCI-H2405,0.993,0.989,0.929,0.892,0.984,0.639,0.591,0.794,0.885,0.522,0.435,0.424,0.401,0.68,0.356
NCI-H3122,0.994,0.998,1.01,1.12,1.02,0.11,0.0996,0.108,0.0726,0.092,0.578,0.548,0.586,0.694,0.65
PC-3 [JPC-3],0.813,0.691,0.823,0.803,0.842,0.736,0.656,0.694,0.768,0.671,0.809,0.772,0.771,0.897,0.421
PC-14,1.09,1.03,0.994,0.988,0.974,0.146,0.196,0.18,0.159,0.152,0.636,0.644,0.645,0.655,0.616
RERF-LC-KJ,1.53,0.879,1.1,0.877,1.06,1.35,1.16,1.24,1.36,1.2,0.569,0.536,0.56,0.581,0.55
SK-LU-1,1.39,,0.786,0.878,0.971,0.208,0.204,0.172,0.218,0.186,0.511,0.627,0.657,0.726,0.603
SK-MES-1,1.26,1.12,1.3,,1.04,0.725,0.563,0.694,0.836,0.601,0.405,0.282,0.304,0.291,0.269
SW 1573,0.99,0.67,1.21,1.09,1.13,0.235,0.181,0.207,0.692,0.185,0.448,0.375,0.408,0.423,0.379
